Measured values: ChEMBL document CHEMBL1142200, “Efficacy of delayed treatment with ST-246 given orally against systemic orthopoxvirus infections in mice” (Antimicrob Agents Chemother, 2007)
Active and inactive are the calls of the source. The calls are words filed in the database; no cut-off is given here.

Columns and labels:
[1] = Selectivity index, ratio of CC50 for HFF cells to EC50 for Cowpox virus Brighton infected HFF cells; assay type: functional
[2] = system: Mus musculus; experiment: Effect on mortality of BALB/c mouse inoculated with Cowpox virus BR at 100 mg/kg after 24 hrs of viral infection, po once daily for 5 days relative to control; assay type: functional
[3] = system: Ectromelia virus; experiment: Reduction of Ectromelia virus replication in BALB/c mouse lung at 100 mg/kg, po once daily after 6 days; assay type: functional, organism-based; set-up: dose 100 mg/kg
[4] = system: Ectromelia virus; experiment: Reduction of Ectromelia virus replication in BALB/c mouse liver at 100 mg/kg, po once daily after 14 days; assay type: functional, organism-based; set-up: dose 100 mg/kg
[5] = system: Mus musculus; experiment: Effect on mortality of BALB/c mouse inoculated with Vaccinia virus WR at 100 mg/kg after 24 hrs of viral infection, po once daily for 10 days relative to control; assay type: functional
[6] = system: Mus musculus; experiment: Effect on mortality of BALB/c mouse inoculated with Vaccinia virus WR at 50 mg/kg after 24 hrs of viral infection, po for 9 days; assay type: functional, organism-based; set-up: dose 50 mg/kg
[7] = system: Ectromelia virus; experiment: Reduction of Ectromelia virus replication in BALB/c mouse spleen at 100 mg/kg, po once daily after 14 days; assay type: functional, organism-based; set-up: dose 100 mg/kg
[8] = system: Mus musculus; experiment: Effect on mortality of A/NCr mouse inoculated with ectromelia virus at 100 mg/kg after 24 hrs of viral infection, po once daily for 10 days relative control; assay type: functional
[9] = system: Mus musculus; experiment: Effect on mortality of BALB/c mouse inoculated with Vaccinia virus WR at 100 mg/kg after 4 hrs of viral infection, po once daily for 5 days relative to control; assay type: functional
[10] = system: Mus musculus; experiment: Effect on mortality of BALB/c mouse inoculated with Cowpox virus BR at 100 mg/kg after 24 hrs of viral infection, po once daily for 7 days relative to control; assay type: functional
[11] = system: Mus musculus; experiment: Effect on mortality of BALB/c mouse inoculated with Vaccinia virus WR at 100 mg/kg after 24 hrs of viral infection, po once daily for 7 days relative to control; assay type: functional
[12] = system: Mus musculus; experiment: Effect on mortality of BALB/c mouse inoculated with Vaccinia virus WR at 100 mg/kg after 4 hrs of viral infection, po once daily for 7 days relative to control; assay type: functional
[13] = system: Mus musculus; experiment: Effect on mortality of BALB/c mouse inoculated with Cowpox virus at 30 mg/kg after 48 hrs of viral infection, po once daily for 14 days relative to control; assay type: functional
[14] = system: Mus musculus; experiment: Effect on mortality of A/NCr mouse inoculated with ectromelia virus at 100 mg/kg after 72 hrs of viral infection, po once daily for 10 days relative control; assay type: functional
[15] = system: Cowpox virus; experiment: Reduction of Cowpox virus BR replication in BALB/c mouse lung at 50 mg/kg after 24 hrs of viral infection, po for 9 days; assay type: functional, organism-based; set-up: dose 50 mg/kg
[16] = system: Ectromelia virus; experiment: Reduction of Ectromelia virus replication in BALB/c mouse esophagus at 100 mg/kg, po once daily after 14 days; assay type: functional, organism-based; set-up: dose 100 mg/kg
[17] = system: Mus musculus; experiment: Effect on mortality of BALB/c mouse inoculated with Cowpox virus at 10 mg/kg after 4 hrs of viral infection, po once daily for 14 days relative to control; assay type: functional
[18] = system: Vaccinia virus; experiment: Reduction of Vaccinia virus WR replication in BALB/c mouse spleen at 50 mg/kg after 24 hrs of viral infection, po for 9 days; assay type: functional, organism-based; set-up: dose 50 mg/kg; details: Orthopoxvirus vaccinia
[19] = system: Vaccinia virus; experiment: Reduction of Vaccinia virus WR replication in BALB/c mouse lung at 50 mg/kg after 24 hrs of viral infection, po for 9 days; assay type: functional, organism-based; set-up: dose 50 mg/kg; details: Orthopoxvirus vaccinia
[20] = Cytotoxicity against HFF cells; assay type: cell-based; details: human
[21] = system: Mus musculus; experiment: Effect on mortality of BALB/c mouse inoculated with Cowpox virus BR at 100 mg/kg after 24 hrs of viral infection, po once daily for 10 days relative to control; assay type: functional
[22] = system: Mus musculus; experiment: Effect on mortality of BALB/c mouse inoculated with Cowpox virus at 100 mg/kg after 24 hrs of viral infection, po once daily for 14 days relative to control; assay type: functional
[23] = system: Mus musculus; experiment: Effect on mortality of BALB/c mouse inoculated with Cowpox virus BR at 100 mg/kg after 24 hrs of viral infection, po once daily for 14 days relative to control; assay type: functional
[24] = system: Mus musculus; experiment: Effect on mortality of BALB/c mouse inoculated with Cowpox virus BR at 100 mg/kg after 4 hrs of viral infection, po once daily for 5 days relative to control; assay type: functional
[25] = system: Ectromelia virus; experiment: Reduction of Ectromelia virus replication in BALB/c mouse nasal wash at 100 mg/kg, po once daily after 6 days; assay type: functional, organism-based; set-up: dose 100 mg/kg
[26] = system: Mus musculus; experiment: Effect on mortality of BALB/c mouse inoculated with Vaccinia virus WR at 100 mg/kg after 4 hrs of viral infection, po once daily for 14 days relative to control; assay type: functional
[27] = system: Ectromelia virus; experiment: Reduction of Ectromelia virus replication in BALB/c mouse lung at 100 mg/kg, po once daily after 14 days; assay type: functional, organism-based; set-up: dose 100 mg/kg
[28] = system: Ectromelia virus; experiment: Reduction of Ectromelia virus replication in BALB/c mouse lung at 100 mg/kg, po once daily after 4 days; assay type: functional, organism-based; set-up: dose 100 mg/kg
[29] = system: Ectromelia virus; experiment: Reduction of Ectromelia virus replication in BALB/c mouse nasal wash at 100 mg/kg, po once daily after 8 days; assay type: functional, organism-based; set-up: dose 100 mg/kg
[30] = system: Mus musculus; experiment: Effect on mortality of BALB/c mouse inoculated with Vaccinia virus WR at 100 mg/kg after 4 hrs of viral infection, po once daily for 10 days relative to control; assay type: functional
[31] = system: Ectromelia virus; experiment: Reduction of Ectromelia virus replication in BALB/c mouse spleen at 100 mg/kg, po once daily after 6 days; assay type: functional, organism-based; set-up: dose 100 mg/kg

O=C(NN1C(=O)[C@@H]2[C@@H]3C=C[C@@H]([C@H]4C[C@@H]34)[C@@H]2C1=O)c1ccc(C(F)(F)F)cc1 [TECOVIRIMAT]
Ratio CC50/EC50 [1]: >208 | Activity [2]: 73% | Activity [3]: Active | Activity [4]: Active | Activity [5]: 0% | Activity [6]: Active | Activity [7]: Active | Activity [8]: 0% | Activity [9]: 13% | Activity [10]: 40% | Activity [11]: 7% | Activity [12]: 20% | Activity [13]: 20% | Activity [14]: 0% | Activity [15]: Active | Activity [16]: Active | Activity [17]: 92% | Activity [18]: Active | Activity [19]: Active | CC50 [20]: > 100 µM | Activity [21]: 40% | Activity [22]: 27% | Activity [23]: 0% | Activity [24]: 87% | Activity [25]: inactive | Activity [26]: 20% | Activity [27]: Active | Activity [28]: Active | Activity [29]: inactive | Activity [30]: 33% | Activity [31]: Active
